# Square brackets hold non-standard residues; d marks the D form. Peptide text beside a SMILES is read from it. * marks the point of attachment. dPhe(4-NHCONH2) = NC(=O)Nc1ccc(C[C@@H](N)C(=O)O)cc1; Dihydroorotyl(S) = O=C1C[C@@H](C(=O)*)NC(=O)N1; dPhe(4-Cl) = N[C@H](Cc1ccc(Cl)cc1)C(=O)O; Phe(4-NH2) = Nc1ccc(C[C@H](N)C(=O)O)cc1; d2Nal = N[C@H](Cc1ccc2ccccc2c1)C(=O)O; Lys(iPr) = CC(C)NCCCC[C@H](N)C(=O)O; d3Pal = N[C@H](Cc1cccnc1)C(=O)O
# Assays:
# [1] = CS21: incidence rates of cardiovascular events per 1,000 person years (Poisson model), by risk-factor subgroup; settings: for Coronary artery disease, % of patients / Coronary artery disease, incidence rate / HLGT Cardiac arrhythmias, % of patients / HLGT Cardiac arrhythmias, incidence rate / HLGT Central nervous system vascular disorders, % of patients / HLGT Central nervous system vascular disorders, incidence rate / HLGT Coronary artery disorders, % of patients / HLGT Coronary artery disorders, incidence rate / HLGT Heart failures, % of patients / HLGT Heart failures, incidence rate / Heart failure, % of patients / Heart failure, incidence rate / MI, % of patients / MI, incidence rate / Stroke, % of patients / Stroke, incidence rate: in vivo
# Source text: The SCS summarizes both crude incidences (n/N) as well as incidence rates of adverse events (number of patients with at least one adverse event investigated per 1,000 person years) including exact 95% CI based on the Poisson model and presented per MedDRA Preferred term (and grouped by SOC) for all study-groups, including the CS21 trial (the trial comprising the controlled phase 3 study group) and for all sub-groups. Briefly, the Poisson model provides exact 1-α lower (LL) and upper (UL) confidence limits are LL=χ2x; α/2^2/(2T) and UL=χ2(x+1); 1-α/2^2/(2T), respectively, where T is the number of 1,000 person years and x=number of subjects at least once having reported the adverse event under investigation (see Gerlinger et al. (2003) Eur. J. Contracept. Reprod. Health Care 8:87-92).
# These P values were presented as *(0.01<P≤0.05), ** (0.001<P≤0.01), and *** (P≤0.001). Similarly, incidence rates were compared using P values associated with the Poison model-based UMPU test. Briefly, assuming xi˜Poisson(λiTi), where xi=the number of subjects with the event, Ti=total number of 1,000 person years in arm i and λi=incidence rate in arm i (i=1,2), then the P value=2 min ([…], P(S≤x1), 0.5), where S˜Binomial (x1+x2, T1/(T1+T2)) (see, e.g. Lehmann (1986) Testing Statistical Hypotheses, 2nd edition, Springer-Verlag, New York).
# In the SCS, cardiovascular events were more specifically investigated on more aggregated MedDRA levels, i.e. the incidence, and incidence rates of subject with AEs in the following High Level Group Terms were tabulated by study group and treatment:
# These subgroup analyses were not pre-planned as part of the SCS.
# [2] = test system: follicle stimulating hormone (FSH); assay: CS21: serum FSH over time; format: in vivo, human
# Description: Finally, the study evaluated the pharmacokinetics of the degarelix dosing regimens investigated.
# The secondary efficacy endpoints were: the proportion of patients with testosterone surge during the first 2 weeks of treatment; the proportion of patients with testosterone level ≤0.5 ng/mL at day 3; the percentage change in PSA from baseline to day 28; the probability of testosterone ≤0.5 ng/mL from day 56 through day 364; the levels of serum testosterone, LH, FSH and PSA over time through the study; the time to PSA failure, defined as two consecutive increases of 50%, and at least 5 ng/mL as compared to nadir; degarelix concentration over the first month and trough levels at day 308 and 336; the frequency and size of testosterone increases at day 255 and/or 259 compared to the testosterone level at day 252; the quality of life on days 0, 28, 84, 168 and end of study visit; the frequency and intensity of hot flushes experienced (scored daily from study start until end of study visit. In addition, two further secondary endpoints were added: the probability of sufficient testosterone response from day 28 through day 364 (a patient was considered to have insufficient testosterone response if they had one testosterone value >1.0 ng/mL or two consecutive testosterone values >0.5 ng/mL at day 28 onwards); and the percentage change in PSA from baseline to Day 14.
# testosterone = assay: CS21 phase 3 study, degarelix vs leuprolide 7.5 mg: serum testosterone suppression; format: in vivo, human; settings: for Probability of sufficient testosterone response / Probability of testosterone ≤0.5 ng/mL from Day 28 through Day 364 / Probability of testosterone ≤0.5 ng/mL from Day 56 through Day 364: age <65; for patients with testosterone surge (increase ≥15% from baseline): first two weeks, pooled degarelix
# Description: In this example, an open-label, multi-center, randomized, parallel-group study was conducted to investigate the efficacy and safety of degarelix one month dosing regimens. […] These degarelix dosing regimens were compared to LUPRON DEPOT™ at 7.5 mg in patients with prostate cancer requiring androgen ablation therapy. […] Finally, the study evaluated the pharmacokinetics of the degarelix dosing regimens investigated. […] The primary efficacy endpoint was analyzed for both the ITT and PP analysis sets, with the ITT analysis set considered primary. The primary efficacy endpoint was analyzed using the Kaplan Meier method. For each of the three treatment groups, testosterone response rates with 95% confidence interval (CI) were calculated by log-log transformation of survivor function. […] All secondary efficacy endpoints were analyzed for both the ITT and PP analysis sets, unless otherwise stated. […] The percentage change in PSA from baseline to day 28 endpoint was analyzed by a Wilcoxon test. […] The secondary endpoints; probability of testosterone ≤0.5 ng/mL from Day 56 through Day 364, time to PSA failure and probability of sufficient testosterone response from Day 28 through Day 364 were analyzed by the Kaplan-Meier method.
# [3] = degarelix 240@40/80@20, LUPRON DEPOT 7.5 mg
# [4] = degarelix 240/80 mg, leuprolide 7.5 mg
structure (smiles),measurement,setting,value
"CC(=O)N[C@H](Cc1ccc2ccccc2c1)C(=O)N[C@H](Cc1ccc(Cl)cc1)C(=O)N[C@H](Cc1cccnc1)C(=O)N[C@@H](CO)C(=O)N[C@@H](Cc1ccc(NC(=O)[C@@H]2CC(=O)NC(=O)N2)cc1)C(=O)N[C@H](Cc1ccc(NC(N)=O)cc1)C(=O)N[C@@H](CC(C)C)C(=O)N[C@@H](CCCCNC(C)C)C(=O)N1CCC[C@H]1C(=O)N[C@H](C)C(N)=O [Degarelix, D-Alaninamide, N-acetyl-3-(2-naphthalenyl)-D-alanyl-4-chloro-D-phenylalanyl-3-(3-pyridinyl)-D-alanyl-L-seryl-4-[[[(4S)-hexahydro-2,6-dioxo-4-pyrimidinyl]carbonyl]amino]-L phenylalanyl-4-[(aminocarbonyl)amino]-D-phenylalanyl-L leucyl-N6-(1-methylethyl)-L-lysyl-L-prolyl] (Ac-[d2Nal][dPhe(4-Cl)][d3Pal]S[Phe(4-NH2)](Dihydroorotyl(S))[dPhe(4-NHCONH2)]L[Lys(iPr)]P[dA]-NH2)","Cardiac arrhythmias, relative risk degarelix vs Lupron",[1]; BMI 25-<30 kg/m2,0.566
same,"Cardiac disorders (SOC), relative risk degarelix vs Lupron",[1]; BMI 25-<30 kg/m2,0.765
same,"Coronary artery disorders, relative risk degarelix vs Lupron",[1]; BMI 25-<30 kg/m2,1.013
same,"Cardiac arrhythmias, relative risk degarelix vs Lupron",[1]; BMI <25 kg/m2,0.312
same,"Cardiac disorders (SOC), relative risk degarelix vs Lupron",[1]; BMI <25 kg/m2,0.242
same,"Coronary artery disorders, relative risk degarelix vs Lupron",[1]; BMI <25 kg/m2,0.000
same,"Coronary artery disorders, relative risk degarelix vs Lupron","[1]; BMI <25 kg/m2, listed as degarelix",0.0
same,"Cardiac arrhythmias, relative risk degarelix vs Lupron",[1]; BMI >=30 kg/m2,3.161
same,"Cardiac disorders (SOC), relative risk degarelix vs Lupron",[1]; BMI >=30 kg/m2,1.946
same,"Coronary artery disorders, relative risk degarelix vs Lupron",[1]; BMI >=30 kg/m2,1.217
same,"Cardiac arrhythmias, relative risk degarelix vs Lupron",[1]; Cholesterol <4 mmol/L,1.973
same,"Cardiac arrhythmias, relative risk degarelix vs Lupron",[1]; Cholesterol >=4 mmol/L,0.411
same,"Cardiac arrhythmias, relative risk degarelix vs Lupron","[1]; Cholesterol >=4 mmol/L, listed as degarelix",0.41
same,"Coronary artery disease, % of patients",[1],(3%)
same,"Coronary artery disease, incidence rate",[1],"34.2 per 1,000 person years"
same,"HLGT Cardiac arrhythmias, % of patients",[1],(5%)
same,"HLGT Cardiac arrhythmias, incidence rate",[1],"57.7 per 1,000 person years"
same,"HLGT Central nervous system vascular disorders, % of patients",[1],(<1%)
same,"HLGT Central nervous system vascular disorders, incidence rate",[1],"14.2 per 1,000 person years"
same,"HLGT Coronary artery disorders, % of patients",[1],(3%)
same,"HLGT Coronary artery disorders, incidence rate",[1],"34.2 per 1,000 person years"
same,"HLGT Heart failures, % of patients",[1],(<1%)
same,"HLGT Heart failures, incidence rate",[1],"14.1 per 1,000 person years"
same,"Heart failure, % of patients",[1],(1%)
same,"Heart failure, incidence rate",[1],"14.1 per 1,000 person years"
same,"MI, % of patients",[1],(<1%)
same,"MI, incidence rate",[1],"5.64 per 1,000 person years"
same,"Stroke, % of patients",[1],(<1%)
same,"Stroke, incidence rate",[1],"8.49 per 1,000 person years"
same,decrease in median FSH from baseline,[2]; by day 7,> 80%
same,median FSH level,[2]; by day 7,≤ 1.5 IU/L
same,median testosterone level,"testosterone; after one year of treatment, 80 mg monthly",0.087 ng/mL
same,Probability of sufficient testosterone response,testosterone; degarelix 240/160@40,96.7%
same,Probability of testosterone ≤0.5 ng/mL from Day 28 through Day 364,testosterone; degarelix 240/160@40,96.7%
same,Probability of testosterone ≤0.5 ng/mL from Day 56 through Day 364,testosterone; degarelix 240/160@40,96.7%
same,Probability of sufficient testosterone response,testosterone; [3],97.4%
same,Probability of testosterone ≤0.5 ng/mL from Day 28 through Day 364,testosterone; [3],97.4%
same,Probability of testosterone ≤0.5 ng/mL from Day 56 through Day 364,testosterone; [3],97.4%
same,patients with testosterone suppression on day 3,testosterone,96%
same,Kaplan-Meier probability of testosterone ≤0.5 ng/mL from day 28 to day 364,testosterone; [4],97.2%
same,observed cases analysis: proportion of patients with testosterone ≤0.5 ng/mL from day 28 to day 364,testosterone; [4],97.0%
same,Kaplan-Meier probability of testosterone ≤0.5 ng/mL from day 28 to day 364,testosterone; degarelix 240/160 mg,98.3%
same,observed cases analysis: proportion of patients with testosterone ≤0.5 ng/mL from day 28 to day 364,testosterone; degarelix 240/160 mg,98.2%
same,patients with testosterone surge (increase ≥15% from baseline),testosterone; leuprolide 7.5 mg,0.2%
same,patients with sustained testosterone suppression,"testosterone; maintenance monthly 80 mg, at least one year",97%
"CCNC(=O)[C@@H]1CCCN1C(=O)[C@H](CCCNC(=N)N)NC(=O)[C@H](CC(C)C)NC(=O)[C@@H](CC(C)C)NC(=O)[C@H](Cc1ccc(O)cc1)NC(=O)[C@H](CO)NC(=O)[C@H](Cc1c[nH]c2ccccc12)NC(=O)[C@H](Cc1c[nH]cn1)NC(=O)[C@@H]1CCC(=O)N1 [Leuprolide, leuprolide, reference compound]","Coronary artery disease, % of patients",[1],(5%)
same,"Coronary artery disease, incidence rate",[1],"63.4 per 1,000 person years"
same,"HLGT Cardiac arrhythmias, % of patients",[1],(8%)
same,"HLGT Cardiac arrhythmias, incidence rate",[1],"100 per 1,000 person years"
same,"HLGT Central nervous system vascular disorders, % of patients",[1],(<1%)
same,"HLGT Central nervous system vascular disorders, incidence rate",[1],"5.63 per 1,000 person years"
same,"HLGT Coronary artery disorders, % of patients",[1],(5%)
same,"HLGT Coronary artery disorders, incidence rate",[1],"63.4 per 1,000 person years"
same,"HLGT Heart failures, % of patients",[1],(2%)
same,"HLGT Heart failures, incidence rate",[1],"28.4 per 1,000 person years"
same,"Heart failure, % of patients",[1],(2%)
same,"Heart failure, incidence rate",[1],"28.4 per 1,000 person years"
same,"MI, % of patients",[1],(2%)
same,"MI, incidence rate",[1],"22.6 per 1,000 person years"
same,"Stroke, % of patients",[1],(<1%)
same,"Stroke, incidence rate",[1],"5.63 per 1,000 person years"
same,median FSH plateau,[2]; around day 56 until day 364,approximately 4.40 IU/L
same,median FSH level,[2]; by day 14,2.0 IU/L
same,increase in FSH from baseline,[2]; day 1,146%
same,median FSH level (peak),[2]; day 1,22.5 IU/L
same,Probability of sufficient testosterone response,testosterone; [3],92.1%
same,Probability of testosterone ≤0.5 ng/mL from Day 28 through Day 364,testosterone; [3],89.5%
same,Probability of testosterone ≤0.5 ng/mL from Day 56 through Day 364,testosterone; [3],89.5%
same,patients with testosterone suppression on day 3,testosterone,no patients
same,Kaplan-Meier probability of testosterone ≤0.5 ng/mL from day 28 to day 364,testosterone; [4],96.4%
same,observed cases analysis: proportion of patients with testosterone ≤0.5 ng/mL from day 28 to day 364,testosterone; [4],96.0%
same,patients with testosterone surge (increase ≥15% from baseline),testosterone; leuprolide 7.5 mg,80.1%
